According to patent US11298363B2, “Triazolobenzazepines as vasopressin V1a receptor antagonists” (RICHTER GEDEON NYRT., priority 2017, dated 2022):
Counter-ions that a name gives are not always drawn.

Assays:
[1] = biological target: T1, human vasopressin V1a receptor (Homo sapiens, UniProt P37288); test: Functional assay on human vasopressin V1a receptor expressing cell line (intracellular Ca2+ fluorescence); assay type: cell-based; details: 1321N1 cells, (Arg8)-vasopressin at EC80; read-out: IC50 (nM) on hV1a cell line
T1 sequence (P37288 whole entry): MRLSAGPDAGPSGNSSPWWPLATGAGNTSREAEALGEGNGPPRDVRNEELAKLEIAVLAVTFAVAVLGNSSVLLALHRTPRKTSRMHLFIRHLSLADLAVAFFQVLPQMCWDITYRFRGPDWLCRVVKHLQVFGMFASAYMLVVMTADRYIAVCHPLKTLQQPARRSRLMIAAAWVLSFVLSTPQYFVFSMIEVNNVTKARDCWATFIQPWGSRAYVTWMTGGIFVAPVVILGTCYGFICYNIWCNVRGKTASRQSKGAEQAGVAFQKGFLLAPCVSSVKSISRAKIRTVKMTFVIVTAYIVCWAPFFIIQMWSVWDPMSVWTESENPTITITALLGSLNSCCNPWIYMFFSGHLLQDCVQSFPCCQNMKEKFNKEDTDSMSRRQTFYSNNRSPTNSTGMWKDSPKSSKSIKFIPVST

[2] = biological target: T1, human vasopressin V1a receptor; test: Human vasopressin V1a receptor binding assay; details: 1321N1 cell membranes, [3H]vasopressin; read-out: Ki (nM) on hV1a cell line
In short: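 Ki values come from IC50 via Cheng-Prusoff (KD from prior Scatchard), averaged over at least two independent runs. Human V1a membranes were incubated with radioligand 60 minutes at 27° C., bound ligand collected by filtration; (Arg^8)-vasopressin at 1.2×10^−6 M defined non-specific binding.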

Row | Structure (SMILES) | IC50 [1] | Ki [2]
1 | CC(C)NC1Cc2ccccc2-n2c(nnc2[C@H]2CC[C@H](Oc3ccccn3)CC2)C1 (stereo partly drawn) [Example 150, N-(propan-2-yl)-1-[trans-4-(pyridin-2-yloxy)cyclohexyl]-5,6-dihydro-4H-[1,2,4]triazolo[4,3-a][1]benzazepin-5-amine] | 94 nM | 5 nM
2 | O=C(N[C@H]1Cc2cc(Cl)ccc2-n2c(nnc2[C@H]2CC[C@H](Oc3ccccn3)CC2)C1)C1CCOCC1 [Example 151] | 209 nM | 30 nM
3 | CCC(C)C(=O)N[C@H]1Cc2cc(Cl)ccc2-n2c(nnc2[C@H]2CC[C@H](Oc3ccccn3)CC2)C1 (stereo partly shown) [Example 152] | 737 nM | 67 nM
4 | CN(C)CCC(=O)N[C@H]1Cc2cc(Cl)ccc2-n2c(nnc2[C@H]2CC[C@H](Oc3ccccn3)CC2)C1 [Example 153, N-{(5S)-8-chloro-1-[trans-4-(pyridin-2-yloxy)cyclohexyl]-5,6-dihydro-4H-[1,2,4]triazolo[4,3-a][1]benzazepin-5-yl}-N^3,N^3-dimethyl-β-alaninamide] | 307 nM | 20.5 nM
5 | Clc1ccc2c(c1)C[C@H](NC1CCCC1)Cc1nnc([C@H]3CC[C@H](Oc4ccccn4)CC3)n1-2 [Example 154, (5S)-8-chloro-N-cyclopentyl-1-[trans-4-(pyridin-2-yloxy)cyclohexyl]-5,6-dihydro-4H-[1,2,4]triazolo[4,3-a][1]benzazepin-5-amine] | 21 nM | 0.8 nM
6 | Clc1ccc2c(c1)CC1(Cc3nnc(N4CCC5(CC4)OCc4ccccc45)n3-2)OCCO1 [Example 155, 8′-chloro-1′-(1′H,3H-spiro[2-benzofuran-1,4′-piperidin]-1′-yl)-4′H,6′H-spiro[1,3-dioxolane-2,5′-[1,2,4]triazolo[4,3-a][1]benzazepine]] | 0.7 nM | 0.04 nM
7 | O=C1Cc2cc(Cl)ccc2-n2c(nnc2N2CCC3(CC2)OCc2ccccc23)C1 [Example 156, 8-chloro-1-(1′H,3H-spiro[2-benzofuran-1,4′-piperidin]-1′-yl)-4H-[1,2,4]triazolo[4,3-a][1]benzazepin-5(6H)-one] | 9.5 nM | 0.5 nM
8 | CCC(C)(C)C(=O)N[C@H]1Cc2cc(Cl)ccc2-n2c(nnc2[C@H]2CC[C@H](Oc3ccccn3)CC2)C1 [Example 158, N-{(5S)-8-chloro-1-[trans-4-(pyridin-2-yloxy)cyclohexyl]-5,6-dihydro-4H-[1,2,4]triazolo[4,3-a][1]benzazepin-5-yl}-2,2-dimethylbutanamide] | 1510 nM | 62 nM
9 | CC(C)(O)C(=O)N[C@H]1Cc2cc(Cl)ccc2-n2c(nnc2[C@H]2CC[C@H](Oc3ccccn3)CC2)C1 [Example 159, N-{(5S)-8-chloro-1-[trans-4-(pyridin-2-yloxy)cyclohexyl]-5,6-dihydro-4H-[1,2,4]triazolo[4,3-a][1]benzazepin-5-yl}-2-hydroxy-2-methylpropanamide] | 216 nM | 8 nM
10 | CCN(C)[C@H]1Cc2cc(Cl)ccc2-n2c(nnc2[C@H]2CC[C@H](Oc3ccccn3)CC2)C1 [Example 160] | 4.9 nM | 0.4 nM
11 | CC(C)CN[C@H]1Cc2cc(Cl)ccc2-n2c(nnc2[C@H]2CC[C@H](Oc3ccccn3)CC2)C1 [Example 161, (5S)-8-chloro-N-(2-methylpropyl-1-[trans-4-pyridin-2-yloxy)cyclohexyl]-5,6-dihydro-4H-[1,2,4]triazolo[4,3-a][1]benzazepin-5-amine] | 34 nM | 1.8 nM
12 | Clc1ccc2c(c1)CC1(Cc3nnc([C@H]4CC[C@H](N5CCOCC5)CC4)n3-2)OCCO1 [Example 162, 8′-chloro-1′-[trans-4-(morpholin-4-yl)cyclohexyl]-4′H,6′H-spiro[1,3-dioxolane-2,5′-[1,2,4]triazolo[4,3-a][1]benzazepine]hydrochloride] | 2.9 nM | 0.5 nM
13 | CN(C)C1Cc2cc(Cl)ccc2-n2c(nnc2N2CCC3(CC2)OCc2ccccc23)C1 (stereo not shown) [Example 163] | 6.2 nM | 1 nM
14 | Clc1ccc2c(c1)CC1(Cc3nnc(N4CCN(c5ncccc5Cl)CC4)n3-2)OCCO1 [Example 164, 8′-chloro-1-[4-(3-chloropyridin-2-yl)piperazin-1-yl]-4′H,6′H-spiro[1,3-dioxolane-2,5′-[1,2,4]triazolo[4,3-a][1]benzazepine]] | 0.9 nM | 0.3 nM
15 | CC(C)(C)CN[C@H]1Cc2cc(Cl)ccc2-n2c(nnc2[C@H]2CC[C@H](Oc3ccccn3)CC2)C1 [Example 165, (5S)-8-chloro-N-(2,2-dimethylpropyl)-1-[trans-4-(pyridin-2-yloxy)cyclohexyl]-5,6-dihydro-4H-[1,2,4]triazolo[4,3-a][1]benzazepin-5-amine] | 21 nM | 1.5 nM
16 | COC1Cc2cc(Cl)ccc2-n2c(nnc2[C@H]2CC[C@H](C(=O)N3CCN(C)CC3)CC2)C1 (stereo partly drawn) [Example 166, [Trans-4-(8-chloro-5-methoxy-5,6-dihydro-4H-[1,2,4]triazolo[4,3-a][1]benzazepin-1-yl)cyclohexyl](4-methylpiperazin-1-yl)methanone] | 169 nM | 6.2 nM
17 | Clc1ccc2c(c1)C[C@@H](N1CCOCC1)Cc1nnc([C@H]3CC[C@H](Oc4ccccn4)CC3)n1-2 [Example 167, (5R)-8-chloro-5-(morpholin-4-yl)-1-[trans-4-(pyridin-2-yloxy)cyclohexyl]-5,6-dihydro-4H-[1,2,4]triazolo[4,3-a][1]benzazepine] | 2.6 nM | 0.4 nM
18 | CC(=O)N[C@@H]1Cc2cc(Cl)ccc2-n2c(nnc2[C@H]2CC[C@H](Oc3ccccn3)CC2)C1 [Example 168, N-{(5R)-8-chloro-1-[trans-4-(pyridin-2-yloxy)cyclohexyl]-5,6-dihydro-4H-[1,2,4]triazolo[4,3-a][1]benzazepin-5-yl}acetamide] | 0.8 nM | 0.4 nM
19 | CC(C)(O)C(=O)N[C@@H]1Cc2cc(Cl)ccc2-n2c(nnc2[C@H]2CC[C@H](Oc3ccccn3)CC2)C1 [Example 169, N-{(5R)-8-chloro-1-[trans-4-(pyridin-2-yloxy)cyclohexyl]-5,6-dihydro-4H-[1,2,4]triazolo[4,3-a][1]benzazepin-5-yl}-2-hydroxy-2-methylpropanamide] | 2.3 nM | 0.9 nM
20 | COC1Cc2cc(Cl)ccc2-n2c(nnc2C2CCN(C3CCOCC3)CC2)C1 (stereo not shown) [Example 170, 8-chloro-5-methoxy-1-[1-(tetrahydro-2H-pyran-4-yl)piperidin-4-yl]-5,6-dihydro-4H-[1,2,4]triazolo[4,3-a][1]benzazepine] | 38 nM | 15.3 nM
21 | Clc1ccc2c(c1)CC1(Cc3nnc(N4CCN(c5ccccn5)CC4)n3-2)OCCO1 [Example 171, 8′-chloro-1′-[4-(pyridin-2-yl)piperazin-1-yl]-4′H,6′H-spiro[1,3-dioxolane-2,5′-[1,2,4]triazolo[4,3-a][1]benzazepine]] | 1.2 nM | 0.6 nM
22 | OC1Cc2cc(Cl)ccc2-n2c(nnc2N2CCC3(CC2)OCc2ccccc23)C1 (stereo not shown) [Example 172, 8-chloro-1-(1′H,3H-spiro[2-benzofuran-1,4′-piperidin]-1′-yl)-5,6-dihydro-4H-[1,2,4]triazolo[4,3-a][1]benzazepin-5-ol] | 5.6 nM | 0.7 nM
23 | OC1Cc2cc(Cl)ccc2-n2c(nnc2N2CCC(c3ncccc3Cl)CC2)C1 (stereo not shown) [Example 173, 8-chloro-1-[4-(3-chloropyridin-2-yl)piperidin-1-yl]-5,6-dihydro-4H-[1,2,4]triazolo[4,3-a][1]benzazepin-5-ol] | 11 nM | 1.6 nM
